Where a chain is given by its changes, count along the chain named.
What was measured:
[1] = Displacement of radiolabeled angiotensin2 from angiotensin AT1 receptor in rat adrenal cortex membranes; assay type: cell membranes, Membrane
[2] = tested on: Rattus norvegicus; experiment: Antihypertensive activity in iv dosed renal hypertensive rat model; assay type: functional; settings: read-out: ED50
[3] = tested on: Rattus norvegicus; experiment: Antihypertensive activity in po dosed renal hypertensive rat model; assay type: functional; settings: read-out: ED50
[4] = target: T1, Type-1 angiotensin II receptor (Bos taurus) (UniProt P25104); experiment: Binding affinity to angiotensin AT1 receptor in bovine adrenal cortex membranes; assay type: cell membranes; settings: Membrane
T1 sequence (whole entry): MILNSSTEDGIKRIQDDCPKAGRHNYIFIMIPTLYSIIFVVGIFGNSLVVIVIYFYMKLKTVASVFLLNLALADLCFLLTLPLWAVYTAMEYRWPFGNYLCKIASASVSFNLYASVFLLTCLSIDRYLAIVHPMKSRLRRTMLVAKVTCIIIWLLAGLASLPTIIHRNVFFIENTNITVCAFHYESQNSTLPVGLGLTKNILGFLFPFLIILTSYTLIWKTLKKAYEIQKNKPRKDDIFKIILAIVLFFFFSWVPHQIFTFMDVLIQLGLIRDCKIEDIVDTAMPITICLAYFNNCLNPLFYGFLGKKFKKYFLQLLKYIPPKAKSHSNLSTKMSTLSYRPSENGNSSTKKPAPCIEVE

[5] = Antagonist activity at angiotensin AT1 receptor in rat adrenal cortical membranes; assay type: functional, cell membranes
[6] = Displacement of radiolabeled angiotensin2 from angiotensin AT1 receptor in rat vascular smooth muscle
[7] = Binding affinity to angiotensin AT1 receptor in rat liver membranes; assay type: cell membranes, Membrane
[8] = Antagonist activity at angiotensin AT1 receptor in rat kidney homogenates; assay type: functional, tissue-based
[9] = tested on: Rattus norvegicus; experiment: Antihypertensive activity in furosemide-treated sodium depleted rat model assessed as reduction of blood pressure at 10 mg/kg, po; assay type: functional
[10] = Half life in rat; assay type: ADME, organism-based; settings: in vivo
[11] = tested on: Rattus norvegicus; experiment: Antihypertensive activity in furosemide-treated sodium depleted rat model assessed as reduction of blood pressure at 3 mg/kg, po; assay type: functional
[12] = Oral bioavailability in rat; assay type: ADME, organism-based; settings: in vivo
[13] = organism: Rattus norvegicus; experiment: (§1) Antagonist activity at angiotensin AT1 receptor in rat liver membranes; assay type: functional, cell membranes; settings: Membrane
[14] = organism: Rattus norvegicus; experiment: Antihypertensive activity in renal hypertensive rat model assessed as reduction of blood pressure; assay type: functional
[15] = Binding affinity to angiotensin AT1 receptor in bovine adrenal cortex membranes
[16] = target: T2, Type-1 angiotensin II receptor (Oryctolagus cuniculus, UniProt P34976); experiment: Antagonist activity at angiotensin AT1 receptor in rabbit aortic strip assessed as inhibition of angiotensin 2-induced contractile response; assay type: functional; settings: read-out: pA2 (converted)
T2 sequence (P34976 whole entry): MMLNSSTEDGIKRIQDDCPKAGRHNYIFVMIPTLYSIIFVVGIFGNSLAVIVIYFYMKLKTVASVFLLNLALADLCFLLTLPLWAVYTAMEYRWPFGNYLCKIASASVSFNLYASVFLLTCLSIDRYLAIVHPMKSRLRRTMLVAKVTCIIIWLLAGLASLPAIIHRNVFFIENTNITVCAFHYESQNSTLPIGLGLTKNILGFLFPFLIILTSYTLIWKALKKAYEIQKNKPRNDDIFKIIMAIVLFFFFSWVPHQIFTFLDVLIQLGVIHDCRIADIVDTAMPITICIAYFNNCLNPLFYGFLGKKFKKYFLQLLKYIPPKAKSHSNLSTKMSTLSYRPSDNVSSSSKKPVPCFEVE

[17] = Antagonist activity at angiotensin AT1 receptor in rat mesenteric artery; assay type: functional
[18] = target: T3, Type-1 angiotensin II receptor (Homo sapiens) (UniProt P30556); experiment: Binding affinity to angiotensin AT1 receptor
T3 sequence (whole entry): T2 sequence (P34976 whole entry) with M2I, A49V, V254I, V270I, H272R, K311R, S349T, V353A

[19] = tested on: Rattus norvegicus; experiment: Antihypertensive activity in po dosed renal hypertensive rat model assessed as reduction of angiotensin 2-induced blood pressure up to 24 hrs; assay type: functional
[20] = target: T4, Type-1 angiotensin II receptor (Cavia porcellus, UniProt Q9WV26); experiment: Antagonist activity at angiotensin AT1 receptor in guinea pig ileum; assay type: functional, tissue-based; settings: read-out: pA2 (converted)
T4 sequence (Q9WV26 whole entry): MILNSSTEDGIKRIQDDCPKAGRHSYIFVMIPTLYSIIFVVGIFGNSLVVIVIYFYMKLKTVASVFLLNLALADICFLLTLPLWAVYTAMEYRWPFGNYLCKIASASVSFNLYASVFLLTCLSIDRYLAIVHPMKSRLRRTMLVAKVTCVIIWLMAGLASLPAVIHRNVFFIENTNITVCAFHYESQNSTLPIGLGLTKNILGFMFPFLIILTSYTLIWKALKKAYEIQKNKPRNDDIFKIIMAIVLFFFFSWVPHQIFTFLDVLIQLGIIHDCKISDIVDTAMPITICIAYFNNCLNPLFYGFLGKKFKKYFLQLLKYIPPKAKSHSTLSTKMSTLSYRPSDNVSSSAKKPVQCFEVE

[21] = tested on: Rhesus monkey; experiment: Antihypertensive activity in salt depleted normotensive monkey model assessed as reduction of blood pressure at 10 mg/kg, po; assay type: functional, Macaca mulatta; design: scale not given: the % may be the effect or the level left
[22] = tested on: Rattus norvegicus; experiment: Antihypertensive activity in renal hypertensive rat model assessed as reduction of mean arterial blood pressure at 10 mg/kg, po; assay type: functional, Artery; design: scale not given: the % may be the effect or the level left
[23] = tested on: Rattus norvegicus; experiment: Antihypertensive activity in renal hypertensive rat model assessed as reduction of mean arterial blood pressure at 30 mg/kg, po; assay type: functional, Artery; design: scale not given: the % may be the effect or the level left
[24] = target: T5, Type-1 angiotensin II receptor (Oryctolagus cuniculus) (UniProt P34976); experiment: (§2) Antagonist activity at angiotensin AT1 receptor in rabbit aorta; assay type: functional, tissue-based
T5 sequence (whole entry): T2 sequence (P34976 whole entry)

[25] = tested on: Rattus norvegicus; experiment: Antihypertensive activity in po dosed conscious goldblatt hypertensive rat model assessed as reduction of angiotensin 2-induced mean arterial blood pressure; assay type: functional; settings: Artery
[26] = as §1; assay type: functional, cell membranes, Membrane
[27] = Binding affinity to angiotensin AT1 receptor in rat cortical membranes; assay type: cell membranes
[28] = target: T2, Type-1 angiotensin II receptor; experiment: as §2; assay type: functional, tissue-based

CCCCc1nc(Cl)c(CO)n1Cc1ccc(-c2ccccc2-c2nnn[nH]2)cc1 [LOSARTAN]
IC50 [1]: 19 nM | ED50 [2]: 0.78 mg/kg | ED50 [3]: 0.59 mg/kg | Activity [4]: 11.6 nM | IC50 [5]: 0.82 nM | IC50 [6]: 20 nM | IC50 [7]: 6.7 nM | pA2 [8]: 7.8

CCc1nc2c(C)cc(C)nc2n1Cc1cccc([C@@H](c2ccccc2)[C@@H](C)C(=O)O)c1
Activity [9]: 39 mmHg | half-life [10]: 9.1 h | Activity [11]: 24 mmHg | bioavailability [12]: 91% | Activity [13]: 0.069 µM

CCc1nc2c(C)cc(C)nc2n1Cc1ccc2nc(-c3ccccc3NS(=O)(=O)C(F)(F)F)ccc2c1 [GA0113]
ED25 [14]: 0.015 mg/kg | bioavailability [12]: 94%

CCc1nc2c(C)cc(C)nc2n1Cc1ccc2c(c1)C(Cc1nnn[nH]1)c1ccccc1-2 (centres undefined)
IC50 [15]: 11 nM | Kb [16]: 0.631 nM

CCCCc1nc2c(n1Cc1ccc(-c3ccccc3-c3nnn[nH]3)cc1)C(=O)N1C3CCC(CC3)N1C2
IC50 [17]: 1.3 nM | pKb [18]: 10.6

CCc1cc2c(c(CC)n1)CCC(=O)N2Cc1ccc(-c2ccccc2-c2nnn[nH]2)cc1
ED50 [19]: 3 mg/kg

CCCc1nc2cc(C(=O)OC)[nH]c2n1Cc1ccc(-c2ccccc2C(=O)O)cc1
Kb [20]: 15.8 nM

CCCCc1ncc(/C=C2/C(=O)N(CCCC)C(=O)N2Cc2csc(C)n2)n1Cc1ccc(C(=O)OC)cc1
Activity [21]: 27% | Activity [22]: 25% | Activity [23]: 40% | Activity [24]: 3.8 nM

Cc1nc(C)c2c(n1)N(Cc1ccc(-c3ccccc3-c3nnn[nH]3)cc1)C(=O)CC2 [TASOSARTAN]
ED50 [25]: 0.58 mg/kg | IC50 [26]: 5.2 nM

CCCCc1nc2ccn(CC(=O)N(C)C)c(=O)c2n1Cc1ccc(-c2ccccc2-c2nnn[nH]2)cc1
IC50 [27]: 0.7 nM | IC50 [28]: 0.2 nM
